Where only a bound is given, the exact number is not on record here.

As a reminder, the IC50 is the concentration at which inhibition is half-maximal.

One data set deals with RSV. The data set is described as follows: XTT assay, RSV-infected Hep-2 cells. The format is cell-based, Respiratory Syncytial Virus (RSV). The settings on record: Table 2, Examples 75 to 82 and 125 to 184, Hep-2 cells infected with RSV, 6 days at 37° C. The protocol:
Examples 75 to 82 and 125 to 184 were tested according to the protocol described below.
(§1) The inner 60 wells of 96 well tissue culture plates were seeded with Hep-2 cells at 4×10^4 cells/well for compound activity and toxicity studies in 100 μl of medium and incubated at 37° C. overnight or until nearing confluency.
Cells were infected with 25 μl RSV previously titrated to give 80% cell kill. To each well 25 μM of test compound were added. The final DMSO concentration was 0.5%. Some 200 μl of sterile distilled water were added to the outer wells of the plate and incubated at 37° C. for 6 days. Some 0.25 μl/ml PMS were added to stock […] solution, final conc. 25 μM PMS. Then 25 μl warmed XTT/PMS solution were added to each well and incubated for 1 hour at 37° C.
Maximum OD450nm reading (uninfected, untreated control cells) corresponded to 100% inhibition. Minimum OD450nm readings (infected control cells) corresponded to 0% inhibition. Log 10 concentration was plotted against OD450nm and IC50 values were calculated from either reading 50% value from graph or using regression analysis.
A general note: Tetrazolium assays rely on reduction of a dye to a coloured formazan, in cell work by metabolically active cells.

In another data set the test system is Hep-2 cells. Description: Toxicity studies (XTT), Hep-2 cells. The format is cell-based. Details: TC50 (6d): unit not given beside the values. The settings on record: for TC50 (6d): Table 2, Examples 75 to 82 and 125 to 184, 6d, in µM; for TC50 (2d): Table 2, Examples 75 to 82 and 125 to 184, 2d. The protocol: as §1
Cells were infected with 25 μl RSV previously titrated to give 80% cell kill. To each well 25 μM of test compound were added. The final DMSO concentration was 0.5%. […] Some 0.25 μl/ml PMS were added to stock […] solution, final conc. 25 μM PMS. Then 25 μl warmed XTT/PMS solution were added to each well and incubated for 1 hour at 37° C.

The mark [1] stands for this setting: human respiratory syncytial virus, 144 h.

In the data set with RSV (setting [1]), `COc1cc2ccccc2cc1C(=O)NC1N=C(c2ccccc2)c2ccccc2NC1=O` (stereo not drawn) [Example 82a, 3-Methoxy-naphthalene-2-carboxylic acid (2-oxo-5-phenyl-2,3-dihydro-1H-benzo[e][1,4]diazepin-3-yl)-amide] returned an IC50 of 6.7 µM. In addition, the “TC50 (6d)” value in the data set with Hep-2 cells was >50.

Regarding `COc1cc2ccccc2cc1C(=O)N[C@H]1N=C(c2ccccc2)c2ccccc2NC1=O` [Example 82b, (S)-3-Methoxy-naphthalene-2-carboxylic acid (2-oxo-5-phenyl-2,3-dihydro-1H-benzo[e][1,4]diazepin-3-yl)-amide], the midpoint of inhibition in the data set on RSV (setting [1]), the IC50, lay at 1.5 µM. In addition, the “TC50 (6d)” value in the data set on Hep-2 cells is recorded as >50.

In the data set on RSV (setting [1]), `COc1ccc(C(C)(C)C)cc1C(=O)NC1N=C(c2ccccc2)c2ccccc2NC1=O` (stereo not drawn) [Example 125, 5-tert-Butyl-2-methoxy-N-(2-oxo-5-phenyl-2,3-dihydro-1H-benzo[e][1,4]diazepin-3-yl)-benzamide] had an IC50 of 6.1 µM. For the same compound, the “TC50 (6d)” value in the data set with Hep-2 cells was >50.

For `COc1ccc(OC)c(C(=O)NC2N=C(c3ccccc3)c3ccccc3NC2=O)c1` (stereo not drawn) [Example 126, 2,5-Dimethoxy-N-(2-oxo-5-phenyl-2,3-dihydro-1H-benzo[e][1,4]diazepin-3-yl)-benzamide], in the data set with RSV (setting [1]), half-maximal inhibition (IC50) was put at 5.4 µM. The “TC50 (6d)” value in the data set on Hep-2 cells is recorded as >50.

Compound `O=C(Nc1c(F)cccc1F)NC1N=C(c2ccccc2)c2ccccc2NC1=O` (stereo not drawn) [Example 127, 1-(2,6-Difluoro-phenyl)-3-(2-oxo-5-phenyl-2,3-dihydro-1H-benzo[e][1,4]diazepin-3-yl)-urea] came in with an IC50 in the data set on RSV (setting [1]) of 9.4 µM. Also, the “TC50 (6d)” value with Hep-2 cells is reported as >50.

In turn, `O=C(Nc1cccc(F)c1)NC1N=C(c2ccccc2)c2ccccc2NC1=O` (stereo not drawn) [Example 128, 1-(3-Fluoro-phenyl)-3-(2-oxo-5-phenyl-2,3-dihydro-1H-benzo[e][1,4]diazepin-3-yl)-urea] yielded an IC50 in the data set with RSV (setting [1]) of 6.1 µM. In the data set on Hep-2 cells, the “TC50 (6d)” value was >50.

In the data set on RSV (setting [1]), `COc1cccc(NC(=O)NC2N=C(c3ccccc3)c3ccccc3NC2=O)c1` (stereo not drawn) [Example 129, 1-(3-Methoxy-phenyl)-3-(2-oxo-5-phenyl-2,3-dihydro-1H-benzo[e][1,4]diazepin-3-yl)-urea] showed an IC50 of 4.9 µM. Further, in the data set on Hep-2 cells, the “TC50 (6d)” value is reported as >50.

For the compound `O=C(Nc1cccc(C(F)(F)F)c1)NC1N=C(c2ccccc2)c2ccccc2NC1=O` (stereo not drawn) [Example 130, 1-(2-Oxo-5-phenyl-2,3-dihydro-1H-benzo[e][1,4]diazepin-3-yl)-3-(3-trifluoromethyl-phenyl)-urea], the IC50 in the data set on RSV (setting [1]) worked out at 9.7 µM. Moreover, the “TC50 (6d)” value in the data set on Hep-2 cells is given as 39.5.

In the data set with RSV, `O=C(Nc1cccc(Cl)c1)NC1N=C(c2ccccc2)c2ccccc2NC1=O` (stereo not drawn) [Example 131] came in with an IC50 of 9.6 µM. Moreover, in the data set on Hep-2 cells, the “TC50 (6d)” value was >50.

`COc1cc(SC)ccc1C(=O)NC1N=C(c2ccccc2)c2ccccc2NC1=O` (stereo not drawn) [Example 132, 2-Methoxy-4-methylsulfanyl-N-(2-oxo-5-phenyl-2,3-dihydro-1H-1-benzo[e][1,4]diazepin-3-yl)-benzamide]: the IC50 in the data set with RSV came out at 6.3 µM. Further, the “TC50 (6d)” value in the data set on Hep-2 cells was >50.

`CS(=O)(=O)c1ccc(C(=O)NC2N=C(c3ccccc3)c3ccccc3NC2=O)cc1` (stereo not drawn) [Example 133, 4-Methanesulfonyl-N-(2-oxo-5-phenyl-2,3-dihydro-1H-benzo[e][1,4]diazepin-3-yl)-benzamide]: in the data set with RSV (setting [1]), 6.2 µM corresponded to half-maximal inhibition (IC50). Moreover, in the data set on Hep-2 cells, the “TC50 (6d)” value was 77.2.

Consider `COC(=O)c1ccc(C(=O)NC2N=C(c3ccccc3)c3ccccc3NC2=O)cc1` (stereo not drawn) [Example 134, N-(2-Oxo-5-phenyl-2,3-dihydro-1H-benzo[e][1,4]diazepin-3-yl)terephthalamic acid methyl ester], for which the IC50 in the data set on RSV (setting [1]) is 6.5 µM. Also, the “TC50 (6d)” value in the data set on Hep-2 cells amounted to 77.1.

`O=C(NC1N=C(c2ccccc2)c2ccccc2NC1=O)c1ccccc1F` (stereo not drawn) [Example 135, 2-Fluoro-N-(2-oxo-5-phenyl-2,3-dihydro-1H-benzo[e][1,4]diazepin-3-yl)-benzamide]: inhibition with RSV (setting [1]) was half-maximal at 9.5 µM (IC50). The “TC50 (6d)” value with Hep-2 cells is reported as >50.

In the data set on RSV, `O=C(NC1N=C(c2ccccc2)c2ccccc2NC1=O)c1c(F)cccc1F` (stereo not drawn) [Example 136, 2,6-Difluoro-N (2-oxo-5-phenyl-2,3-dihydro-1H-benzo[e][1,4]diazepin-3-yl)-benzamide] registered an IC50 of 8.7 µM. The “TC50 (6d)” value in the data set with Hep-2 cells is listed as >50.

`CCCOc1ccccc1C(=O)NC1N=C(c2ccccc2)c2ccccc2NC1=O` (stereo not drawn) [Example 137, N-(2-Oxo-5-phenyl-2,3-dihydro-1H-benzo[e][1,4]diazepin-3-yl)-2-propoxy-benzamide] yielded an IC50 in the data set on RSV (setting [1]) of 8.3 µM. Also, in the data set with Hep-2 cells, the “TC50 (6d)” value was >50.

`O=C(NC1N=C(c2ccccc2)c2ccccc2NC1=O)c1ccccc1I` (stereo not drawn) [Example 138, 2-Iodo-N-(2-oxo-5-phenyl-2,3-dihydro-1H-benzo[e][1,4]diazepin-3-yl)-benzamide]: the IC50 with RSV (setting [1]) turned out to be 8.3 µM. Besides, the “TC50 (6d)” value with Hep-2 cells was determined as 51.

In the data set on RSV, `COC(=O)c1ccc(C(=O)NC2N=C(c3ccccc3)c3ccccc3NC2=O)c(OC)c1` (stereo not drawn) [Example 139, 3-Methoxy-N-(2-oxo-5-phenyl-2,3-dihydro-H-benzo[e][1,4]diazepin-3-yl)-terephthalamic acid methyl ester] returned an IC50 of 9.2 µM. The “TC50 (6d)” value in the data set with Hep-2 cells amounted to 98.

For the compound `COc1cc(N)c(Cl)cc1C(=O)NC1N=C(c2ccccc2)c2ccccc2NC1=O` (stereo not drawn) [Example 140, 4-Amino-5-chloro-2-methoxy-N-(2-oxo-5-phenyl-2,3-dihydro-1H-benzo[e][1,4]diazepin-3-yl)-benzamide], in the data set on RSV (setting [1]), the IC50 was 2.5 µM. For the same compound, in the data set on Hep-2 cells, the “TC50 (6d)” value is 68.

In the data set on RSV (setting [1]), `CSc1ccccc1C(=O)NC1N=C(c2ccccc2)c2ccccc2NC1=O` (stereo not drawn) [Example 142, 2-Methylsulfanyl-N-(2-oxo-5-phenyl-2,3-dihydro-1H-benzo[e][1,4]diazepin-3-yl)-benzamide] gave an IC50 of 9.4 µM. The “TC50 (6d)” value in the data set on Hep-2 cells is on record as >50.

Regarding `COc1ccc(S(N)(=O)=O)cc1C(=O)NC1N=C(c2ccccc2)c2ccccc2NC1=O` (stereo not drawn) [Example 143, 2-Methoxy-N-(2-oxo-5-phenyl-2,3-dihydro-1H-benzo[e][1,4]diazepin-3-yl)-5-sylfamoyl-benzamide], in the data set with RSV, half-maximal inhibition (IC50) required 3.8 µM. The TC50 (2d) in the data set with Hep-2 cells is > 50 µM.

Regarding `O=C(NC1N=C(c2ccccc2)c2ccccc2NC1=O)C(O)Cc1ccccc1` (stereo not drawn) [Example 144, 2-Hydroxy-N-(2-oxo-5-phenyl-2,3-dihydro-1H-benzo[e][1,4]diazepin-3-yl)-3-phenyl-propionamide], the IC50 in the data set with RSV (setting [1]) was determined as 5.5 µM. In the data set with Hep-2 cells, the TC50 (2d) was > 50 µM.

Turning to `O=C(CC(O)c1ccccc1)NC1N=C(c2ccccc2)c2ccccc2NC1=O` (stereo not drawn) [Example 145, 3-Hydroxy-N-(2-oxo-5-phenyl-2,3-dihydro-1H-benzo[e][1,4]diazepin-3-yl)-3-phenyl-propionamide], 1.9 µM corresponded to half-maximal inhibition in the data set on RSV (setting [1]) (IC50). The TC50 (2d) with Hep-2 cells was > 50 µM.

With `CN(C(=O)Nc1ccccc1F)C1N=C(c2ccccc2)c2ccccc2NC1=O` (stereo not drawn) [Example 146, 3-(2-Fluoro-phenyl)-1-methyl-1-(2-oxo-5-phenyl-2,3-dihydro-1H-benzo[e][1,4]diazepin-3-yl)-urea], the IC50 with RSV (setting [1]) turned out to be 9.5 µM. For the same compound, the TC50 (2d) in the data set on Hep-2 cells is > 50 µM.

`COc1cc([N+](=O)[O-])ccc1C(=O)N(C)C1N=C(c2ccccc2)c2ccccc2NC1=O` (stereo not drawn) [Example 147, 2-Methoxy-N-methyl-4-nitro-N-(2-oxo-5-phenyl-2,3-dihydro-1H-benzo[e][1,4]diazepin-3-yl)-benzamide]: the IC50 in the data set on RSV (setting [1]) is 15.9 µM. Besides, the TC50 (2d) in the data set on Hep-2 cells is > 50 µM.

For `CC(C)(C)NC(=O)NC1N=C(c2ccccc2)c2ccccc2NC1=O` (stereo not drawn) [Example 148, 1-tert-Butyl-3-(2-oxo-5-phenyl-2,3-dihydro-1H-benzo[e][1,4]diazepin-3-yl)-urea], the IC50 in the data set on RSV (setting [1]) amounted to 5 µM. Besides, in the data set with Hep-2 cells, the TC50 (2d) is > 100 µM and the “TC50 (6d)” value was >100.

As for `O=C(NC1CCCCC1)NC1N=C(c2ccccc2)c2ccccc2NC1=O` (stereo not drawn) [Example 149, 1-Cyclohexyl-3-(2-oxo-5-phenyl-2,3-dihydro-1H-benzo[e][1,4]diazepin-3-yl)-urea], it took 1.5 µM to reach half-maximal inhibition with RSV (setting [1]) (IC50). Moreover, in the data set on Hep-2 cells, the TC50 (2d) was > 100 µM and the “TC50 (6d)” value is on record as >100.

As for `CCNC(=O)NC1N=C(c2ccccc2)c2ccccc2NC1=O` (stereo not drawn) [Example 150, 1-Ethyl-3-(2-oxo-5-phenyl-2,3-dihydro-1H-benzo[e][1,4]diazepin-3-yl)-urea], in the data set with RSV (setting [1]), the IC50 was determined as 2 µM. In addition, in the data set with Hep-2 cells, the TC50 (2d) is > 100 µM and the “TC50 (6d)” value is reported as >100.

In the case of `CCCCNC(=O)NC1N=C(c2ccccc2)c2ccccc2NC1=O` (stereo not drawn) [Example 151, 1-Butyl-3-(2-oxo-5-phenyl-2,3-dihydro-1H-benzo[e][1,4]diazepin-3-yl)-urea], in the data set with RSV (setting [1]), the IC50 stood at 1.5 µM. Moreover, in the data set on Hep-2 cells, the TC50 (2d) is > 100 µM and the “TC50 (6d)” value was >100.

Source of the values: patent US8119630B2 (Arrow Therapeutics Limited, priority 2002, dated 2012).
